Reference: patent publication US20060069132A1, “Azolecarboxamide herbicides” (priority 2004, published 2006)

Key:
[1] = tested on: morningglory; assay: Test B pre-/postemergence herbicide test; type: in vivo, Ipomoea coccinea; details: for Morningglory plant response rating: postemergence
Procedure, shortened: (§1)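 Response was scored visually 13 to 15 days after treatment against untreated greenhouse controls, 0 meaning no effect and 100 complete control. Formulations (solvent mixture plus surfactant) went onto soil after planting, onto foliage of 1- to 4-leaf plants, and onto 2-leaf plants in a flooded paddy set including rice and barnyardgrass.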

[2] = tested on: Surinam grass; assay: Test B pre-/postemergence herbicide test; type: in vivo, Urochloa decumbens; details: for Surinam Grass plant response rating: postemergence
Procedure, shortened: (§2)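 Greenhouse pot assay with simultaneous preemergence (treated seed) and postemergence (2–18 cm seedlings) applications of surfactant-containing, non-phytotoxic solvent formulations. Response scored visually 13–15 days later on a 0–100 scale, 100 meaning complete control.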

[3] = tested on: pigweed; assay: Test B pre-/postemergence herbicide test; type: in vivo, Amaranthus retroflexus; details: for Pigweed plant response rating: postemergence
Procedure, shortened: as §2

[4] = tested on: cocklebur; assay: Test B pre-/postemergence herbicide test; type: in vivo, Xanthium strumarium; details: for Cocklebur plant response rating: postemergence, scale 0 (no effect) to 100 (complete control)
Procedure, shortened: as §1

[5] = tested on: corn; assay: Test B pre-/postemergence herbicide test; type: in vivo, Zea mays; details: for Corn plant response rating: postemergence
Procedure, shortened: as §2

[6] = tested on: giant foxtail; assay: Test B pre-/postemergence herbicide test; type: in vivo, Setaria faberi; details: for Foxtail, Giant plant response rating: postemergence
Procedure, shortened: as §2

[7] = tested on: small flower umbrella sedge; assay: Test B flooded paddy test; type: in vivo, Cyperus difformis; details: 1000 g ai/ha, scale 0 to 100 (0 no effect, 100 complete control)
Procedure, shortened: (§3)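 Visual control ratings, 0–100 versus untreated controls, taken after 13 to 15 days in the greenhouse. Blackgrass received a postemergence spray at the 1- to 4-leaf stage (2–18 cm); ducksalad, umbrella sedge and barnyardgrass were flooded-paddy treated at 2 leaves.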

[8] = tested on: barnyardgrass; assay: Test B flooded paddy test; type: in vivo, Echinochloa crus-galli; details: 1000 g ai/ha, scale 0 to 100 (0 no effect, 100 complete control)
Procedure, shortened: as §3

[9] = tested on: large crabgrass; assay: Test B pre-/postemergence herbicide test; type: in vivo, Digitaria sanguinalis; details: for Crabgrass, Large plant response rating: postemergence
Procedure, shortened: as §2

[10] = tested on: ducksalad; assay: Test B flooded paddy test; type: in vivo, Heteranthera limosa; details: 1000 g ai/ha, scale 0 to 100 (0 no effect, 100 complete control)
Procedure, shortened: as §3

[11] = tested on: barnyardgrass; assay: Test B pre-/postemergence herbicide test; type: in vivo, Echinochloa crus-galli; details: for Barnyardgrass plant response rating: postemergence, scale 0 (no effect) to 100 (complete control)
Procedure, shortened: as §1

[12] = tested on: velvetleaf; assay: Test B pre-/postemergence herbicide test; type: in vivo, Abutilon theophrasti; details: for Velvetleaf plant response rating: postemergence
Procedure, shortened: as §2

[13] = tested on: blackgrass; assay: Test B postemergence herbicide test; type: in vivo, Alopecurus myosuroides; details: postemergence, visual rating, scale 0 (no effect) to 100 (complete control)
Procedure, shortened: as §3

[14] = tested on: lambsquarters; assay: Test B pre-/postemergence herbicide test; type: in vivo, Chenopodium album; details: for Lambsquarters plant response rating: postemergence
Procedure, shortened: as §2

[15] = tested on: rice; assay: Test B pre-/postemergence herbicide test; type: in vivo, Oryza sativa; details: preemergence
Procedure, shortened: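 Species tested were Echinochloa crus-galli, Ipomoea coccinea, Xanthium strumarium and Oryza sativa, treated both before emergence and at the 1- to 4-leaf stage; rice and barnyardgrass were also tested under flooding at 2 leaves. Greenhouse incubation lasted 13–15 days before visual 0–100 scoring.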

[16] = tested on: wheat; assay: Test B postemergence herbicide test; type: in vivo, Triticum aestivum; set-up: key to Wheat plant response rating: 0 = no effect, 100 = complete control; details: postemergence
Procedure, shortened: (§4)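 Visual ratings, 0 (no effect) to 100 (complete control), made versus controls after 13–15 d greenhouse. Paddy plants treated at 2-leaf stage; postemergence plants at 1- to 4-leaf stage, 2–18 cm tall.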

[17] = tested on: rice; assay: Test B flooded paddy test; type: in vivo, Oryza sativa; details: 1000 g ai/ha, scale 0 to 100 (0 no effect, 100 complete control)
Procedure, shortened: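 Greenhouse test; postemergence application to plants at 1–4 leaves (2–18 cm); paddy species at 2 leaves; evaluated visually vs controls at 13–15 days; scale 0–100 (100 = complete control).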

[18] = tested on: wild oat; assay: Test B postemergence herbicide test; type: in vivo, Avena fatua; details: postemergence
Procedure, shortened: as §4

[19] = 500 g ai/ha, visual rating 0-100, 0 no effect, 100 complete control, preemergence
[20] = 125 g ai/ha, visual rating, scale 0 (no effect) to 100 (complete control)
[21] = 500 g ai/ha, visual rating, scale 0 (no effect) to 100 (complete control)
[22] = preemergence, 125 g ai/ha, 0 to 100 scale, 0 is no effect, 100 is complete control
[23] = 125 g ai/ha, 0 = no effect, 100 = complete control, preemergence
[24] = 500 g ai/ha, visual rating, 0 = no effect, 100 = complete control, preemergence
[25] = 500 g ai/ha, scale 0 to 100, 0 is no effect, 100 is complete control

## CCOC(=O)c1ccnc(NC(=O)c2cc(C(C)(C)C)nn2CC)c1 [Compound 157]
[1]; [19]
  Plant response rating, Morningglory: 40
[1]; [20]
  Morningglory plant response rating: 0
[1]; [21]
  Morningglory plant response rating: 30
[1]; [22]
  Plant response rating, Morningglory: 0
[2]; [19]
  Plant response rating, Surinam Grass: 0
[2]; [20]
  Surinam Grass plant response rating: 20
[2]; [21]
  Surinam Grass plant response rating: 20
[2]; [22]
  Plant response rating, Surinam Grass: 0
[3]; [19]
  Plant response rating, Pigweed: 40
[3]; [20]
  Pigweed plant response rating: 40
[3]; [21]
  Pigweed plant response rating: 80
[3]; [22]
  Plant response rating, Pigweed: 0
[4]; [19]
  Plant response rating, Cocklebur: 20
[4]; 125 g ai/ha, visual rating
  Cocklebur plant response rating: 10
[4]; 500 g ai/ha, visual rating
  Cocklebur plant response rating: 90
[4]; [22]
  Plant response rating, Cocklebur: 0
[5]; [19]
  Plant response rating, Corn: 0
[5]; [20]
  Corn plant response rating: 0
[5]; [21]
  Corn plant response rating: 0
[5]; [22]
  Plant response rating, Corn: 0
[6]; [19]
  Plant response rating, Foxtail, Giant: 0
[6]; [20]
  Foxtail, Giant plant response rating: 30
[6]; [21]
  Foxtail, Giant plant response rating: 40
[6]; [22]
  Plant response rating, Foxtail, Giant: 0
[7]; visual rating, 13 to 15 days
  Sedge, Umbrella plant response rating: 40
[8]; visual rating, 13 to 15 days
  Barnyardgrass plant response rating: 20
[9]; [19]
  Plant response rating, Crabgrass, Large: 20
[9]; [20]
  Crabgrass, Large plant response rating: 0
[9]; [21]
  Crabgrass, Large plant response rating: 20
[9]; [22]
  Plant response rating, Crabgrass, Large: 0
[10]; visual rating, 13 to 15 days
  Ducksalad plant response rating: 0
[11]; [19]
  Plant response rating, Barnyardgrass: 0
[11]; 125 g ai/ha, visual rating
  Barnyardgrass plant response rating: 0
[11]; 500 g ai/ha, visual rating
  Barnyardgrass plant response rating: 20
[11]; [22]
  Plant response rating, Barnyardgrass: 0
[12]; [19]
  Plant response rating, Velvetleaf: 0
[12]; [20]
  Velvetleaf plant response rating: 50
[12]; [21]
  Velvetleaf plant response rating: 80
[12]; [22]
  Plant response rating, Velvetleaf: 0
[13]; 125 g ai/ha
  Blackgrass plant response rating: 10
[13]; 500 g ai/ha
  Blackgrass plant response rating: 20
[14]; [19]
  Plant response rating, Lambsquarters: 30
[14]; [20]
  Lambsquarters plant response rating: 20
[14]; [21]
  Lambsquarters plant response rating: 70
[14]; [22]
  Plant response rating, Lambsquarters: 0
[15]; 500 g ai/ha, visual rating 0-100, 0 no effect, 100 complete control
  Plant response rating, Rice: 0
[15]; 125 g ai/ha, 0 to 100 scale, 0 is no effect, 100 is complete control
  Plant response rating, Rice: 0
[16]; [21]
  Wheat plant response rating: 20
[17]; visual rating, 13 to 15 days
  Rice plant response rating: 30
[18]; [20]
  Oat, Wild plant response rating: 10
[18]; [21]
  Oat, Wild plant response rating: 40

## CCNC(=O)c1cc(NC(=O)c2cc(C(C)(C)C)nn2CC)ccn1 [Compound 257]
[1]; [23]
  Morningglory plant response rating (0 to 100 scale): 0
[1]; [24]
  Plant response rating, Morningglory: 0
[1]; [20]
  Morningglory plant response rating: 0
[1]; [25]
  Morningglory plant response rating: 0
[2]; [23]
  Surinam Grass plant response rating (0 to 100 scale): 0
[2]; [24]
  Plant response rating, Surinam Grass: 0
[2]; [20]
  Surinam Grass plant response rating: 0
[2]; [25]
  Surinam Grass plant response rating: 20
[3]; [23]
  Pigweed plant response rating (0 to 100 scale): 0
[3]; [20]
  Pigweed plant response rating: 60
[3]; [25]
  Pigweed plant response rating: 80
[4]; [23]
  Cocklebur plant response rating (0 to 100 scale): 0
[4]; [24]
  Plant response rating, Cocklebur: 0
[4]; 125 g ai/ha, visual rating
  Cocklebur plant response rating: 0
[4]; 500 g ai/ha, visual rating
  Cocklebur plant response rating: 70
[5]; [23]
  Corn plant response rating (0 to 100 scale): 0
[5]; [24]
  Plant response rating, Corn: 0
[5]; [20]
  Corn plant response rating: 0
[5]; [25]
  Corn plant response rating: 0
[6]; [23]
  Foxtail, Giant plant response rating (0 to 100 scale): 0
[6]; [24]
  Plant response rating, Foxtail, Giant: 50
[6]; [20]
  Foxtail, Giant plant response rating: 0
[6]; [25]
  Foxtail, Giant plant response rating: 0
[7]
  Sedge, Umbrella plant response rating: 0
[8]
  Barnyardgrass plant response rating: 0
[9]; [23]
  Crabgrass, Large plant response rating (0 to 100 scale): 0
[9]; [20]
  Crabgrass, Large plant response rating: 0
[9]; [25]
  Crabgrass, Large plant response rating: 10
[10]
  Ducksalad plant response rating: 50
[11]; [23]
  Barnyardgrass plant response rating (0 to 100 scale): 0
[11]; [24]
  Plant response rating, Barnyardgrass: 20
[11]; 125 g ai/ha, visual rating
  Barnyardgrass plant response rating: 0
[11]; 500 g ai/ha, visual rating
  Barnyardgrass plant response rating: 0
[12]; [23]
  Velvetleaf plant response rating (0 to 100 scale): 0
[12]; [24]
  Plant response rating, Velvetleaf: 0
[12]; [20]
  Velvetleaf plant response rating: 0
[12]; [25]
  Velvetleaf plant response rating: 10
[13]; 125 g ai/ha
  Blackgrass plant response rating: 0
[13]; 500 g ai/ha
  Blackgrass plant response rating: 10
[14]; [23]
  Lambsquarters plant response rating (0 to 100 scale): 0
[14]; [20]
  Lambsquarters plant response rating: 20
[14]; [25]
  Lambsquarters plant response rating: 50
[15]; 125 g ai/ha, 0 = no effect, 100 = complete control
  Rice plant response rating (0 to 100 scale): 0
[15]; 500 g ai/ha, visual rating, 0 = no effect, 100 = complete control
  Plant response rating, Rice: 0
[16]; [20]
  Wheat plant response rating: 0
[16]; [25]
  Wheat plant response rating: 20
[17]
  Rice plant response rating: 30
[18]; [20]
  Oat, Wild plant response rating: 10
[18]; [25]
  Oat, Wild plant response rating: 30
